Among the data in US10556905B2, “Processes for preparing a diazabicyclooctane compound” (priority 2012, dated 2020) are IC50 values, retold here.

Like-named read-outs stand apart in the source and are kept apart here.

One assay has as its target T1, AmpC (Pseudomonas aeruginosa, UniProt P24735).
T1 construct: AmpC, TEM-1, KPC-2 or OXA-2 domain excluding signal peptide was amplified with PCR; made in house; host or cells: Escherichia coli BL21 (DE3), pET-28b(+)
Briefly: biochemical.

Another assay deals with T2, TEM-1 (Escherichia coli, UniProt P62593).
T2 construct: AmpC, TEM-1, KPC-2 or OXA-2 domain excluding signal peptide was amplified with PCR; made in house; host or cells: Escherichia coli BL21 (DE3), pET-28b(+)
T2 sequence (P62593 24-286 limits assumed): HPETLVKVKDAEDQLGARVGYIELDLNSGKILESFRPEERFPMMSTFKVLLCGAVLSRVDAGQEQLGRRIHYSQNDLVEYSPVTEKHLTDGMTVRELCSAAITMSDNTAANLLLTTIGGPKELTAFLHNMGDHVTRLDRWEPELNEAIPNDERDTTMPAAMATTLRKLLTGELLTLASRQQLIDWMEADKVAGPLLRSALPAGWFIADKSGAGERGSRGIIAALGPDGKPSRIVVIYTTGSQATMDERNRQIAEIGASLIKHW
Briefly: β-Lactamase inhibitory activity (nitrocefin hydrolysis), TEM-1. It counts as biochemical. Particulars: TEM-1 0.1 nM, 100 μM nitrocefin, pre-incubation 30° C. 10 minutes. The protocol: Using Pseudomonas aeruginosa ATCCBAA-47 genome, plasmid pBR322, Klebsiella pneumoniae ATCCBAA-1705, and P. aeruginosa MSC17696 as a template, each DNA for encoding β-lactamase, AmpC, TEM-1, KPC-2 or OXA-2 domain excluding signal peptide was amplified with PCR. Each of the PCR product was incorporated into pET-28b(+)vector (Merck), introduced into Escherichia coli BL21 (DE3) (Merck), and, under induction of 1 mM isopropyl-β-D-(−)-thiogalactopyranoside (Nacalai Tesque), cultured overnight at 20° C. to express AmpC, TEM-1, KPC-2, and OXA-2. After the bacterial cell was collected, AmpC was purified from the cell extract obtained by ultrasonic treatment, using CM Sepharose Fast Flow (GE Healthcare) and HiTrap Heparin HP (GE Healthcare) at 4° C. TEM-1 was purified with HiTrap SPHP (GE Healthcare), HiTrap Q (GE Healthcare) and Mono Q (GE Healthcare), and KPC-2 was purified with HiTrap SPHP. OXA-2 was purified with HiTrap SPHP and HiTrap Heparin HP.
For the measurement of β-lactamase inhibitory activity, 100 μM (final concentration) nitrocefin (Oxoid) was used as a substrate, and 2.5% DMSO, 10 μg/mL bovine serum derived albumin (Sigma-Aldrich) and 50 mM phosphate buffer at pH 7.0 were used as a reaction solution. […] Nitrocefin was added to each well to be mixed therein, followed by incubation at 30° C. for 20 minutes, and Multiscan Ascent (Thermo Fisher Scientific) was used to measure 492 nm wavelength, thereby measuring nitrocefin hydrolytic activity of β-Lactamase, to determine enzyme inhibitory activity. […] As the inhibitory activity strength, less than 0.1 μM, less than 1 μM, less than 3 μM, less than 10 μM, and 10 μM or more were shown with A, B, C, D, and E respectively.

In a further assay the target is T3, KPC-2 (Klebsiella pneumoniae, UniProt Q9F663).
T3 construct: AmpC, TEM-1, KPC-2 or OXA-2 domain excluding signal peptide was amplified with PCR; made in house; host or cells: Escherichia coli BL21 (DE3), pET-28b(+)
T3 sequence (Q9F663 25-293, looked up): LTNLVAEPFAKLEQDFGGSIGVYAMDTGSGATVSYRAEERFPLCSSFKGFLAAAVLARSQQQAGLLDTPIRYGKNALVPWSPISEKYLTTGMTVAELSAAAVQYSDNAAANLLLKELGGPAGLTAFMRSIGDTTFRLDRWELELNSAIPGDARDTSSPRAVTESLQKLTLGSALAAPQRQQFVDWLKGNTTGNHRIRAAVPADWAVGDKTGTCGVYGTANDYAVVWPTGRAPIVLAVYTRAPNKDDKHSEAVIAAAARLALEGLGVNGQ
Briefly: β-Lactamase inhibitory activity (nitrocefin hydrolysis), KPC-2. It counts as biochemical. Particulars: KPC-2 0.5 nM, 100 μM nitrocefin, pre-incubation 30° C. 10 minutes.

Another assay addresses T4, OXA-2 (Escherichia coli, UniProt P0A1V9).
T4 construct: AmpC, TEM-1, KPC-2 or OXA-2 domain excluding signal peptide was amplified with PCR; made in house; host or cells: Escherichia coli BL21 (DE3), pET-28b(+)
Briefly: biochemical. Set-up: species or system P. aeruginosa.

Where [1] appears, read: OXA-2 2 nM, 100 μM nitrocefin, pre-incubation 30° C. 10 minutes, read-out: β-Lactamase inhibitory activity OXA-2 (IC50).

T4 sequence (P0A1V9 22-275): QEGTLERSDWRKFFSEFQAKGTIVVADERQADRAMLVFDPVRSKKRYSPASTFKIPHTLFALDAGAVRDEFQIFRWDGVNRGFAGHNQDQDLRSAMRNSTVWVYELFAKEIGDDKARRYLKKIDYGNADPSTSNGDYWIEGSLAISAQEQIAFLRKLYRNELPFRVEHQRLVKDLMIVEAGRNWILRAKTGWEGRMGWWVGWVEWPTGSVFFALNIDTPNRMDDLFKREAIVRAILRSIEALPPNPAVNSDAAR
T1 sequence (P24735 27-397): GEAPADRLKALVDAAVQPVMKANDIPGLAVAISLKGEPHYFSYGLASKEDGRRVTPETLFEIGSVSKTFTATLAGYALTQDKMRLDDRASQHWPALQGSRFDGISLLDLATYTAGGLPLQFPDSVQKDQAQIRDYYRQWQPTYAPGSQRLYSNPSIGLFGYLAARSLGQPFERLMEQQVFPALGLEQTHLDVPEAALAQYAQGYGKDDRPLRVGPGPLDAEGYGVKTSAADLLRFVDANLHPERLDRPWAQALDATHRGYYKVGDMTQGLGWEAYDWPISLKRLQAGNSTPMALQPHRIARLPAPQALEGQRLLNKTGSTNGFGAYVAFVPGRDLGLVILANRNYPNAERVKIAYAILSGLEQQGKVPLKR

The term IC50 denotes the concentration that inhibits the measured activity by half. Turning to `CN(C)CCONC(=O)[C@@H]1CC[C@@H]2CN1C(=O)N2OS(=O)(=O)O` [Example 65, (2S,5R)—N-[2-(Dimethylamino)ethoxy]-7-oxo-6-(sulfooxy)-1,6-diazabicyclo[3.2.1]octane-2-carboxamide], the IC50 at AmpC lay within 100 to 1000 nM; at TEM-1, 100 to 1000 nM; against KPC-2, 1000 to 3000 nM; at OXA-2 (setting [1]), 1000 to 3000 nM.
`CC(=O)NNC(=O)[C@@H]1CC[C@@H]2CN1C(=O)N2OS(=O)(=O)O` [Example 21, Sodium (2S,5R)—N′-acetyl-7-oxo-6-(sulfooxy)-1,6-diazabicyclo[3.2.1]octane-2-carbohydrazide]: the IC50 against AmpC was 100 to 1000 nM; on TEM-1 it was less than 100 nM; against KPC-2, 100 to 1000 nM; on OXA-2, 1000 to 3000 nM.
Consider `O=C(NNC(=O)[C@@H]1CC[C@@H]2CN1C(=O)N2OS(=O)(=O)O)c1cccnc1` [Example 45, Sodium (2S,5R)-7-oxo-N′-(pyridine-3-ylcarbonyl)-6-(sulfooxy)-1,6-diazabicyclo[3.2.1]octane-2-carbohydrazide], for which the IC50 against AmpC was less than 100 nM; against TEM-1 it was less than 100 nM; on KPC-2, 100 to 1000 nM; on OXA-2 it was 1000 to 3000 nM.
In the case of `O=C(NNC(=O)[C@@H]1CC[C@@H]2CN1C(=O)N2OS(=O)(=O)O)C1CCNCC1` [Example 35, (2S,5R)-7-Oxo-N′-(piperidine-4-ylcarbonyl)-6-(sulfooxy)-1,6-diazabicyclo[3.2.1]octane-2-carbohydrazide], the IC50 was 100 to 1000 nM against AmpC, less than 100 nM on TEM-1, 3000 to 10000 nM against KPC-2 and 1000 to 3000 nM at OXA-2 (setting [1]).
Take `O=C([C@@H]1CC[C@@H]2CN1C(=O)N2OS(=O)(=O)O)N1CCCO1` [Example 70, Sodium (2S,5R)-2-(1,2-oxazolidin-2-ylcarbonyl)-6-(sulfooxy)-1,6-diazabicyclo[3.2.1]octane-7-one]: the IC50 on AmpC is 100 to 1000 nM; against TEM-1, less than 100 nM; against KPC-2, 100 to 1000 nM; against OXA-2, 100 to 1000 nM.
Regarding `O=C(NOCC(=O)N1CCNCC1)[C@@H]1CC[C@@H]2CN1C(=O)N2OS(=O)(=O)O` [Example 90, (2S,5R)-7-Oxo-N-[2-oxo-2-(piperazin-1-yl)ethoxy]-6-(sulfooxy)-1,6-diazabicyclo[3.2.1]octane-2-carboxamide], the IC50 against AmpC is less than 100 nM; against TEM-1 it was less than 100 nM; against KPC-2, 100 to 1000 nM; at OXA-2 (setting [1]), 100 to 1000 nM.
`O=C(NC1CCNCC1)[C@@H]1CC[C@@H]2CN1C(=O)N2OS(=O)(=O)O` [MK-7655, reference compound]: the IC50 on OXA-2 (setting [1]) is 100 to 1000 nM.
Regarding `O=C(NO[C@@H]1CCNC1)[C@@H]1CC[C@@H]2CN1C(=O)N2OS(=O)(=O)O` [Example 80, (2S,5R)-7-Oxo-N-[(3R)-pyrrolidin-3-yloxy]-6-(sulfooxy)-1,6-diazabicyclo[3.2.1]octane-2-carboxamide], the IC50 at AmpC was 100 to 1000 nM; on TEM-1, less than 100 nM; against KPC-2, 1000 to 3000 nM; on OXA-2 (setting [1]), 100 to 1000 nM.
As for `O=C(NOC[C@@H]1CCN1)[C@@H]1CC[C@@H]2CN1C(=O)N2OS(=O)(=O)O` [Example 75, (2S,5R)—N-[(2S)-Azetidin-2-ylmethoxy]-7-oxo-6-(sulfooxy)-1,6-diazabicyclo[3.2.1]octane-2-carboxamide], the IC50 at AmpC was 100 to 1000 nM; at TEM-1, less than 100 nM; at KPC-2 it was 100 to 1000 nM; at OXA-2 (setting [1]) it was 1000 to 3000 nM.
On to `O=C(NOC1CCNCC1)[C@@H]1CC[C@@H]2CN1C(=O)N2OS(=O)(=O)O` [Example 84, (2S,5R)-7-Oxo-N-(piperidine-4-yloxy)-6-(sulfooxy)-1,6-diazabicyclo[3.2.1]octane-2-carboxamide], for which the IC50 is less than 100 nM on AmpC, less than 100 nM at TEM-1, 1000 to 3000 nM against KPC-2 and 100 to 1000 nM on OXA-2 (setting [1]).
In the case of `NCC(=O)NNC(=O)[C@@H]1CC[C@@H]2CN1C(=O)N2OS(=O)(=O)O` (racemic) [Example 26, (2SR,5RS)—N′-(Aminoacetyl)-7-oxo-6-(sulfooxy)-1,6-diazabicyclo[3.2.1]octane-2-carbohydrazide], the figures for the IC50 on AmpC, at TEM-1 and against KPC-2 were 1000 to 3000 nM, 100 to 1000 nM and 1000 to 3000 nM, respectively.
As for `NCCCONC(=O)[C@@H]1CC[C@@H]2CN1C(=O)N2OS(=O)(=O)O` [Example 69, (2S,5R)—N-(3-Aminopropoxy)-7-oxo-6-(sulfooxy)-1,6-diazabicyclo[3.2.1]octane-2-carboxamide], the IC50 at AmpC was 100 to 1000 nM; on TEM-1, less than 100 nM; at KPC-2, 1000 to 3000 nM; on OXA-2 (setting [1]), 100 to 1000 nM.
On to `NC(=O)[C@@H]1CC[C@@H]2CN1C(=O)N2OS(=O)(=O)O` [NXL104, reference compound], for which the IC50 at OXA-2 (setting [1]) lay within 100 to 1000 nM.
In the case of `CCC(=O)NNC(=O)[C@@H]1CC[C@@H]2CN1C(=O)N2OS(=O)(=O)O` [Example 22, Sodium (2S,5R)-7-oxo-N′-propanoyl-6-(sulfooxy)-1,6-diazabicyclo[3.2.1]octane-2-carbohydrazide], the IC50 against AmpC was 100 to 1000 nM; on TEM-1, less than 100 nM; against KPC-2, 100 to 1000 nM; against OXA-2, 3000 to 10000 nM.
Consider `CNNC(=O)[C@@H]1CC[C@@H]2CN1C(=O)N2OS(=O)(=O)O` (racemic) [Example 19, (2SR,5RS)—N′-Methyl-7-oxo-6-(sulfooxy)-1,6-diazabicyclo[3.2.1]octane-2-carbohydrazide], for which the IC50 against AmpC is 100 to 1000 nM; on TEM-1, less than 100 nM; against KPC-2 it was 100 to 1000 nM.
Take `CCONC(=O)[C@@H]1CC[C@@H]2CN1C(=O)N2OS(=O)(=O)O` (racemic) [Example 57, Sodium (2SR,5RS)—N-ethoxy-7-oxo-6-(sulfooxy)-1,6-diazabicyclo[3.2.1]octane-2-carboxamide]: the concentration for half-maximal inhibition (IC50) at AmpC was 100 to 1000 nM; on TEM-1, less than 100 nM; against KPC-2 it was 1000 to 3000 nM.
Taken in the same sequence, the figures for `O=C([C@@H]1CC[C@@H]2CN1C(=O)N2OS(=O)(=O)O)N1CCCCO1` [Example 71, Sodium (2S,5R)-2-(1,2-oxazinan-2-ylcarbonyl)-6-(sulfooxy)-1,6-diazabicyclo[3.2.1]octane-7-one] were 100 to 1000 nM, less than 100 nM and 100 to 1000 nM.
The corresponding values for `O=C(NNC(=O)[C@@H]1CC[C@@H]2CN1C(=O)N2OS(=O)(=O)O)c1ccccc1` (racemic) [Example 30, Sodium (2SR,5RS)—N′-benzoyl-7-oxo-6-(sulfooxy)-1,6-diazabicyclo[3.2.1]octane-2-carbohydrazide] are 100 to 1000 nM, less than 100 nM and 100 to 1000 nM.
The corresponding values for `CC(C)(C)OC(=O)NNC(=O)[C@@H]1CC[C@@H]2CN1C(=O)N2OS(=O)(=O)O` (racemic) [Example 53, Sodium tert-butyl 2-{[(2SR,5RS)-7-oxo-6-(sulfooxy)-1,6-diazabicyclo[3.2.1]oct-2-yl]carbonyl}hydrazinecarboxylate] are 100 to 1000 nM, less than 100 nM and 100 to 1000 nM.
On to `O=C(NOCCn1ccnc1)[C@@H]1CC[C@@H]2CN1C(=O)N2OS(=O)(=O)O` [Example 86, Sodium (2S,5R)—N-[2-(1H-Imidazol-1-yl)ethoxy]-7-oxo-6-(sulfooxy)-1,6-diazabicyclo[3.2.1]octane-2-carboxamide], for which the values for the IC50 on AmpC, against TEM-1 and on KPC-2 were less than 100 nM, less than 100 nM and 100 to 1000 nM, respectively.
Consider `O=C(NOCCN1CCNCC1)[C@@H]1CC[C@@H]2CN1C(=O)N2OS(=O)(=O)O` [Example 73, (2S,5R)-7-Oxo-N-[2-(piperazin-1-yl)ethoxy]-6-(sulfooxy)-1,6-diazabicyclo[3.2.1]octane-2-carboxamide], for which the IC50 on AmpC was less than 100 nM; on TEM-1, less than 100 nM; on KPC-2, 100 to 1000 nM.
Consider `CC(C)(C)C(=O)NNC(=O)[C@@H]1CC[C@@H]2CN1C(=O)N2OS(=O)(=O)O` [Example 24, Sodium (2S,5R)—N′-(2,2-dimethylpropanoyl)-7-oxo-6-(sulfooxy)-1,6-diazabicyclo[3.2.1]octane-2-carbohydrazide], for which the IC50 on AmpC, at TEM-1 and against KPC-2 was 100 to 1000 nM in each case.
For `C[C@]1(Cn2ccnn2)[C@H](C(=O)O)N2C(=O)C[C@H]2S1(=O)=O` [TAZ, tazobactam, reference compound], the IC50 against KPC-2 is 100 to 1000 nM; on OXA-2 (setting [1]), less than 100 nM.
